Molecular target: GST-tagged-Wee1 kinase (Homo sapiens, UniProt P30291)
Assay: Wee1 time-resolved fluorescence equilibrium binding assay (displacement of Oregon Green-labeled ATP-competitive kinase probe)
Experimental: Wee1 kinase was assayed using a time-resolved fluorescence equilibrium binding assay monitoring displacement of a rapidly reversible Oregon Green-labeled ATP-competitive kinase probe (N-(2-(2-(2-(4-(4-(5-chloro-4-(2-(1-hydroxycyclobutyl)thiazol-5-yl)-1H-pyrrolo[2,3-b]pyridin-2-yl)phenyl)piperazin-1-yl)ethoxy)ethoxy)ethyl)-2′,7′-difluoro-3′,6′-dihydroxy-3-oxo-3H-spiro[isobenzofuran-1,9′-xanthene]-5-carboxamide) by competitive Wee1 inhibitors.

GST-tagged-Wee1 kinase, sequence (P30291 whole entry): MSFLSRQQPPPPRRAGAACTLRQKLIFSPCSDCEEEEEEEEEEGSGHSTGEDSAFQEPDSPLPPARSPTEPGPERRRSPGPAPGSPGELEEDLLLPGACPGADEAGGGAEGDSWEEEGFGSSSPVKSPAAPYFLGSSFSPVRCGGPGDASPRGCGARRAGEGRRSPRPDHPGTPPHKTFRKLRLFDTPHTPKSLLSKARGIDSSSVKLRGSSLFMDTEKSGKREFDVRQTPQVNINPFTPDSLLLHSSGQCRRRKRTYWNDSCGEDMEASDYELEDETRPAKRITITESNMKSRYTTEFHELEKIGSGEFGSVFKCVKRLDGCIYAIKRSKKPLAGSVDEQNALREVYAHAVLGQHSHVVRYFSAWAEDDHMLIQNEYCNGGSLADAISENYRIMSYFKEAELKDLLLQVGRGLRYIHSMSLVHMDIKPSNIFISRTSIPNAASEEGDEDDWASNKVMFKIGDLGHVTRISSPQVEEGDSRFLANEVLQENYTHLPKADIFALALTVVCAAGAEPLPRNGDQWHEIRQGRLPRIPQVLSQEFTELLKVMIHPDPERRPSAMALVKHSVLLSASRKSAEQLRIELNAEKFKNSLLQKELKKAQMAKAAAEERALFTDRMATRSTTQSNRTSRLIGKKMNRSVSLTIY

Compound | Ki [nM]
O=C1CCCN1c1ccc(Nc2ncc3c(=O)n(-c4ccccc4Cl)nc(-c4ccccc4)c3n2)cc1 [Example 168, 6-(2-chlorophenyl)-2-{[4-(2-oxopyrrolidin-1-yl)phenyl]amino}-8-phenylpyrimido[4,5-d]pyridazin-5(6H)-one] | 2
Cc1ccccc1-n1nc(-c2ccc(Cl)cc2Cl)c2nc(Nc3ccc(N4CCN(C)CC4)cc3)ncc2c1=O [Example 41, 8-(2,4-dichlorophenyl)-6-(2-methylphenyl)-2-{[4-(4-methylpiperazin-1-yl)phenyl]amino}pyrimido[4,5-d]pyridazin-5(6H)-one] | 38
CN1CCN(c2ccc(Nc3ncc4c(=O)n(-c5ccccc5)nc(-c5ccncn5)c4n3)cc2)CC1 [Example 177, 2-{[4-(4-methylpiperazin-1-yl)phenyl]amino}-6-phenyl-8-(pyrimidin-4-yl)pyrimido[4,5-d]pyridazin-5(6H)-one] | 19
CN1CCN(c2ccc(Nc3ncc4c(=O)n(-c5c(Cl)cccc5Cl)nc(-c5ccnc(Cl)c5)c4n3)cc2)CC1 [Example 260, 8-(2-chloropyridin-4-yl)-6-(2,6-dichlorophenyl)-2-{[4-(4-methylpiperazin-1-yl)phenyl]amino}pyrimido[4,5-d]pyridazin-5(6H)-one] | 0.2
O=c1c2cnc(Nc3ccc(S(=O)(=O)N4CCOCC4)cc3)nc2c(-c2ccccc2)nn1-c1ccccc1Cl [Example 255, 6-(2-chlorophenyl)-2-{[4-(morpholin-4-ylsulfonyl)phenyl]amino}-8-phenylpyrimido[4,5-d]pyridazin-5(6H)-one] | > 3140
CN1CCN(c2ccc(Nc3ncc4c(=O)n(-c5cccc(Cl)c5)nc(-c5ccc(Cl)cc5Cl)c4n3)cc2)CC1 [Example 44, 6-(3-chlorophenyl)-8-(2,4-dichlorophenyl)-2-{[4-(4-methylpiperazin-1-yl)phenyl]amino}pyrimido[4,5-d]pyridazin-5(6H)-one] | 520
O=c1c2cnc(Nc3ccc4c(c3)CNCC43CC3)nc2cnn1-c1c(Cl)cccc1Cl [Example 326, 6-(2,6-dichlorophenyl)-2-(2′,3′-dihydro-1′H-spiro[cyclopropane-1,4′-isoquinolin]-7′-ylamino)pyrimido[4,5-d]pyridazin-5(6H)-one] | 0.53
Cc1nn(-c2c(Cl)cccc2Cl)c(=O)c2cnc(Nc3cccc(N4CCN(CCCCl)CC4)c3)nc12 [Example 507, 2-({3-[4-(3-chloropropyl)piperazin-1-yl]phenyl}amino)-6-(2,6-dichlorophenyl)-8-methylpyrimido[4,5-d]pyridazin-5(6H)-one] | 2.4
C=CCn1nc(-c2ccccc2)c2nc(Nc3ccc(N4CCN(C(C)C)CC4)c(C)c3)ncc2c1=O [Example 169, 6-allyl-2-{[4-(4-isopropylpiperazin-1-yl)-3-methylphenyl]amino}-8-phenylpyrimido[4,5-d]pyridazin-5(6H)-one] | 2
C=CCn1nc(-c2cccc(Br)c2)c2nc(Nc3ccc(N4CCN(C)CC4)cc3)ncc2c1=O [Example 68, 6-allyl-8-(3-bromophenyl)-2-{[4-(4-methylpiperazin-1-yl)phenyl]amino}pyrimido[4,5-d]pyridazin-5(6H)-one] | 14
CN1CCN(c2ccc(Nc3ncc4c(=O)n(-c5ccccc5)nc(Cc5ccccc5)c4n3)cc2)CC1 [Example 19, 8-benzyl-2-{[4-(4-methylpiperazin-1-yl)phenyl]amino}-6-phenylpyrimido[4,5-d]pyridazin-5(6H)-one] | 73
CN(C)Cc1cccc(-c2nn(-c3c(Cl)cccc3Cl)c(=O)c3cnc(Nc4ccc(N5CCN(C)CC5)cc4)nc23)c1 [Example 184, 6-(2,6-dichlorophenyl)-8-{3-[(dimethylamino)methyl]phenyl}-2-{[4-(4-methylpiperazin-1-yl)phenyl]amino}pyrimido[4,5-d]pyridazin-5(6H)-one] | 0.03
Nc1ccc(N2CCN(c3ncc4c(=O)n(-c5ccncc5)nc(-c5ccccn5)c4n3)CC2)cc1 [Example 218, 2-(4-(4-aminophenyl)piperazin-1-yl)-8-(pyridin-2-yl)-6-(pyridin-4-yl)pyridazino[4,5-d]pyrimidin-5(6H)-one] | 480
CC1(C)CNCc2cc(Nc3ncc4c(=O)n(-c5ccccn5)nc(-c5ccccn5)c4n3)ccc21 [Example 264, 2-[(4,4-dimethyl-1,2,3,4-tetrahydroisoquinolin-7-yl)amino]-6,8-di(pyridin-2-yl)pyrimido[4,5-d]pyridazin-5(6H)-one] | 12
COCc1nn(-c2c(Cl)cccc2Cl)c(=O)c2cnc(Nc3ccc(N4CCNCC4)cc3)nc12 [Example 424, 6-(2,6-dichlorophenyl)-8-(methoxymethyl)-2-{[4-(piperazin-1-yl)phenyl]amino}pyrimido[4,5-d]pyridazin-5(6H)-one] | 0.4
CN1CCN(c2ccc(Nc3ncc4c(=O)n(-c5ncccc5Cl)nc(-c5cn(C)cn5)c4n3)cc2)CC1 [Example 343, 6-(3-chloropyridin-2-yl)-8-(1-methyl-1H-imidazol-4-yl)-2-{[4-(4-methylpiperazin-1-yl)phenyl]amino}pyrimido[4,5-d]pyridazin-5(6H)-one] | 6.9
Cc1ccccc1-n1nc(-c2ccco2)c2nc(Nc3ccc4c(c3)CN(C)CC4)ncc2c1=O [Example 233, 8-(furan-2-yl)-6-(2-methylphenyl)-2-[(2-methyl-1,2,3,4-tetrahydroisoquinolin-7-yl)amino]pyrimido[4,5-d]pyridazin-5(6H)-one] | 0.3
Cc1nn(-c2c(Cl)cccc2Cl)c(=O)c2cnc(Nc3ccc4c(c3)CN(C)CC43CC3)nc12 [Example 401, 6-(2,6-dichlorophenyl)-8-methyl-2-[(2′-methyl-2′,3′-dihydro-1′H-spiro[cyclopropane-1,4′-isoquinolin]-7′-yl)amino]pyrimido[4,5-d]pyridazin-5(6H)-one] | 0.22
C=CCn1nc(-c2ccco2)c2nc(Nc3ccc(N4CCN(C(C)C)CC4)c(C)c3)ncc2c1=O [Example 146, 6-allyl-8-(2-furyl)-2-{[4-(4-isopropylpiperazin-1-yl)-3-methylphenyl]amino}pyrimido[4,5-d]pyridazin-5(6H)-one] | 3
CN1Cc2cc(Nc3ncc4c(=O)n(-c5c(Cl)cccc5Cl)nc(-c5cncs5)c4n3)ccc2C2(CC2)C1 [Example 317, 6-(2,6-dichlorophenyl)-2-[(2′-methyl-2′,3′-dihydro-1′H-spiro[cyclopropane-1,4′-isoquinolin]-7′-yl)amino]-8-(1,3-thiazol-5-yl)pyrimido[4,5-d]pyridazin-5(6H)-one] | 0.38
CCc1nn(-c2c(Cl)cccc2Cl)c(=O)c2cnc(Nc3ccc(N4CCNC(=O)C4)cc3)nc12 [Example 470, 6-(2,6-dichlorophenyl)-8-ethyl-2-{[4-(3-oxopiperazin-1-yl)phenyl]amino}pyrimido[4,5-d]pyridazin-5(6H)-one] | 0.99
C=CCn1nc(-c2cccs2)c2nc(Nc3ccc(N4CCN(C(C)C)CC4)c(OC)c3)ncc2c1=O [Example 161, 6-allyl-2-{[4-(4-isopropylpiperazin-1-yl)-3-methoxyphenyl]amino}-8-(2-thienyl)pyrimido[4,5-d]pyridazin-5(6H)-one] | 3
CN1CCN(c2ccc(Nc3ncc4c(=O)n(C5CCC5)nc(-c5ccncc5)c4n3)cc2)CC1 [Example 282, 6-cyclobutyl-2-{[4-(4-methylpiperazin-1-yl)phenyl]amino}-8-(pyridin-4-yl)pyrimido[4,5-d]pyridazin-5(6H)-one] | 58

From US8796289B2 (AbbVie Inc., priority 2011, dated 2014)
